Values of other authors as cited in patent publication US20140271573A1, “PHARMACO-CELLULAR THERAPEUTIC METHOD FOR THE TREATMENT OF MUSCULAR DYSTROPHIES” (PONTIFICIA UNIVERSIDAD CATÓLICA DE CHILE, priority 2013, published 2014).

Columns and labels:
MES-13 cells = conditions: cited from earlier work
dystrophin = conditions: cited from earlier work
[1] = 12 DMD patients, six-month period

| Compound | reduction of caspase-3, TGF-β1 and PAI-1, relative activity (MES-13 cells; MES-13 cells, AP2 compared with AP1) | phenotypes indicating diabetic nephropathy in MES-13 cells (MES-13 cells; MES-13 cells) | antioxidant ability in a cellular environment (MES-13 cells) | intracellular oxidative states (MES-13 cells; high glucose cultured MES-13 cells) | clinical benefits in DMD patients (dystrophin; [1]) | patients with dystrophin expression detected (dystrophin; [1]) | dystrophin expression in muscle fibers, of normal levels (dystrophin; mdx mice and humans) |
| --- | --- | --- | --- | --- | --- | --- | --- |
| C=C1CCC2C(C)(CO)C(O)CCC2(C)C1C=CC1=CCOC1=O (stereo not shown) [AP2, 14-deoxy-11,12-didehydroandrographolide] | potent activity than AP1 | reduces | do not have antioxidant ability | reduced | – | – | – |
| gentamicin | – | – | – | – | no clinical benefits were observed | 6 of the 12 | 20% |
